Like-named read-outs stand apart in the source and are kept apart here.
Experiments:
Target C = test: RT-qPCR canonical junction panel assay, Target C mRNA; assay type: cell-based; details: Table 4, read-out: Target C IC50 (decrease in CJ mRNA levels)
Experimental: Compounds described herein were used to modulate RNA transcript abundance in cells. The expression of a target mRNA was measured by detecting the formation of an exon-exon junction in the canonical transcript (CJ). A compound mediated exon-inclusion event was detected by observing an increase in formation of a new junction with an alternative exon (AJ). Real-time qPCR assays were used to detect these splicing switches and interrogate the potency of various compounds towards different target genes. A high-throughput real time quantitative PCR (RT-qPCR) assay was developed to measure these two isoforms of the mRNA (CJ and AJ) for exemplary genes, such as HTT, SMN2, and MYB, together with a control housekeeping gene, GAPDH or GUSB or PPIA, used for normalization. Briefly, the A673 or K562 cell line was treated with various compounds described herein (e.g., compounds of Formula (I)). After treatment, the levels of the HTT, MYB, or SMN2 mRNA targets were determined from each sample of cell lysate by cDNA synthesis followed by qPCR.
The data analysis was performed by first determining the ΔCt vs the housekeeper gene. This ΔCt was then normalized against the DMSO control (ΔΔCt) and converted to RQ (relative quantification) using the 2^(−ΔΔCt) equation. The RQ were then converted to a percentage response by arbitrarily setting an assay window of 3.5 and 4.0 ΔCt for HTT-CJ and MYB-CJ respectively and an assay window of 9 and 3 ΔCt for HTT-AJ and MYB-AJ in 96 well format (50,000 K562 cells/well and 15,000 A673 cells per well) and an assay window of 3 and 4 ΔCt for HTT-CJ and MYB-CJ respectively and an assay window of 5 and 3 ΔCt for HTT-AJ and MYB-AJ respectively in 384 well format (8,000 K562 cells/well example). […] The percentage response was then fitted to the 4 parametric logistic equation to evaluate the concentration dependence of compound treatment. The increase in AJ mRNA is reported as AC50 (compound concentration having 50% response in AJ increase) while the decrease in CJ mRNA levels is reported as IC50 (compound concentration having […] in CJ decrease).
Additional studies were carried out for a larger panel of genes using the protocol provided above. The junction between flanking upstream and downstream exons was used to design canonical junction Qpcr assays. At least one of the forward primer, reverse primer or the CY5-labeled 5′ nuclease probe (with 3′ quencher such as ZEN/Iowa Black FQ) was designed to overlap with the exon junction to capture the CJ Mrna transcript. BLAST was used to confirm the specificity of the probeset and parameters suCH As melting temperature, GC content, amplicon size, and primer dimer formation are considered during their design. Data for the decrease in CJ Mrna levels for four exemplary genes (HTT, SMN2, MYB, and Target C) analyzed in this panel are reported as IC50 (compound concentration having […] in CJ decrease).

SMN2 mRNA = test: RT-qPCR splicing assay, SMN2 mRNA; assay type: cell-based, human; details: Homo sapiens, canonical junction qPCR panel, Table 4; read-out: SMN2 IC50 (decrease in CJ mRNA levels)
Outline: (§1)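 A673 or K562 cells treated 24 h at 37 °C with 11-point 3-fold dilutions (top final 10 uM, DMSO ≤0.25%). Lysates analysed by one-step RT-qPCR for canonical (CJ) and alternative-exon (AJ) junctions, normalized to GAPDH, GUSB or PPIA. ΔΔCt vs DMSO, RQ = 2^(−ΔΔCt), expressed as percentage response.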

HTT mRNA = test: RT-qPCR splicing assay, HTT mRNA canonical (CJ) and alternative (AJ) junction; assay type: cell-based, human; details: Homo sapiens
Outline: as §1

MYB mRNA = test: RT-qPCR splicing assay, MYB mRNA canonical (CJ) and alternative (AJ) junction; assay type: cell-based, human; details: Homo sapiens
Outline: as §1

K562 cells = test: Cell Titer Glo 2.0 cell viability (toxicity) assay, K562; details: 500 cells/well, 72 hours
[1] = HTT alternative junction mRNA, RT-qPCR, read-out: HTT AJ (increase in AJ mRNA, AC50)
[2] = HTT canonical junction mRNA, RT-qPCR, read-out: HTT CJ (decrease in CJ mRNA levels, IC50)
[3] = canonical junction qPCR panel, Table 4, read-out: HTT IC50 (decrease in CJ mRNA levels)
[4] = MYB alternative junction mRNA, RT-qPCR, read-out: MYB AJ (increase in AJ mRNA, AC50)
[5] = MYB canonical junction mRNA, RT-qPCR, read-out: MYB CJ (decrease in CJ mRNA levels, IC50)
[6] = canonical junction qPCR panel, Table 4, read-out: MYB IC50 (decrease in CJ mRNA levels)
[7] = RT-qPCR, HTT alternative junction mRNA increase, read-out: HTT AJ (increase in alternative junction mRNA, AC50)
[8] = RT-qPCR, HTT canonical junction mRNA decrease, read-out: HTT CJ (decrease in canonical junction mRNA, IC50)
[9] = RT-qPCR, MYB alternative junction mRNA increase, read-out: MYB AJ (increase in alternative junction mRNA, AC50)
[10] = RT-qPCR, MYB canonical junction mRNA decrease, read-out: MYB CJ (decrease in canonical junction mRNA, IC50)

IC50 (Target C) | IC50 (SMN2 mRNA) | IC50 (HTT mRNA; [2]) | IC50 (HTT mRNA; [3]) | IC50 (MYB mRNA; [5]) | IC50 (MYB mRNA; [6]) | IC50 (HTT mRNA; [8]) | IC50 (MYB mRNA; [10]) | SMILES | AC50 (HTT mRNA; [1]) | AC50 (MYB mRNA; [4]) | AC50 (HTT mRNA; [7]) | AC50 (MYB mRNA; [9]) | Effect of Exemplary Compounds on Cell Viability, K562 (K562 cells)
100 to 1000 nM | < 100 nM |  | 100 to 1000 nM |  | < 100 nM | 100 to 1000 nM | < 100 nM | C[C@H]1CN(c2cc(F)c3nc(-c4cc(F)c5nn(C)cc5c4)ccc3c2)CCN1 (single isomer, unassigned) [Compound 789] |  |  | 100 to 1000 nM | < 100 nM | B (B represents 100-1000 nM)
1000 to 10000 nM | 100 to 1000 nM |  | 1000 to 10000 nM |  | 1000 to 10000 nM | 1000 to 10000 nM | 1000 to 10000 nM | CCc1nc2cc(O)c(-c3ccc4nc(N5CC[C@@H](NC(C)(C)C)C5)ccc4n3)cc2o1 (single isomer, unassigned) [Compound 808] |  |  | 1000 to 10000 nM | 1000 to 10000 nM | C (C represents 1000-9999 nM)
1000 to 10000 nM | 1000 to 10000 nM |  | 1000 to 10000 nM |  | 1000 to 10000 nM | 1000 to 10000 nM | 1000 to 10000 nM | CCc1nc2cc(O)c(-c3ccc4nc(N5CC[C@H](NC(C)(C)C)C5)ccc4n3)cc2o1 (single isomer, unassigned) [Compound 809] |  |  | 1000 to 10000 nM | 1000 to 10000 nM | C (C represents 1000-9999 nM)
< 100 nM | < 100 nM | < 100 nM | < 100 nM | < 100 nM | < 100 nM |  |  | Cc1nc2c(F)c(O)c(-c3ccc4nc(N5CCC(NCC6CC6)C5)ccc4n3)cc2o1 (centres unmarked) [Cmpd 294] | < 100 nM | < 100 nM |  |  | 
< 100 nM | < 100 nM | < 100 nM | < 100 nM | < 100 nM | < 100 nM |  |  | Cc1nc2c(C)c(O)c(-c3ccc4nc(N5CC[C@@H](NC(C)C)C5)ncc4n3)cc2o1 [Cmpd 415] | < 100 nM | < 100 nM |  |  | 
> 10000 nM |  |  | > 10000 nM |  | 1000 to 10000 nM | > 10000 nM | 1000 to 10000 nM | Cc1cn2nc(-c3ncc4cc(N5CCNC6(CC6)C5)ccc4n3)cc(C)c2n1 [Compound 795, 2-(2,8-dimethylimidazo[1,2-b]pyridazin-6-yl)-6-(4,7-diazaspiro[2.5]octan-7-yl)quinazoline] |  |  | > 10000 nM | 1000 to 10000 nM | C (C represents 1000-9999 nM)
100 to 1000 nM |  |  | 100 to 1000 nM |  | 100 to 1000 nM | 100 to 1000 nM | 100 to 1000 nM | Cc1cn2nc(-c3ccc4cc(N5CCNC6(CC6)C5)cc(F)c4n3)cc(C)c2n1 [Compound 804, 6-{4,7-diazaspiro[2.5]octan-7-yl}-2-{2,8-dimethylimidazo[1,2-b]pyridazin-6-yl}-8-fluoroquinoline] |  |  | 100 to 1000 nM | 100 to 1000 nM | B (B represents 100-1000 nM)

The next lines start with the compound.

SMILES | IC50 (Target C) | IC50 (SMN2 mRNA) | IC50 (HTT mRNA; [2]) | IC50 (HTT mRNA; [3]) | IC50 (MYB mRNA; [5]) | IC50 (MYB mRNA; [6]) | IC50 (HTT mRNA; [8]) | IC50 (MYB mRNA; [10]) | AC50 (HTT mRNA; [1]) | AC50 (MYB mRNA; [4]) | AC50 (HTT mRNA; [7]) | AC50 (MYB mRNA; [9]) | Effect of Exemplary Compounds on Cell Viability, K562 (K562 cells)
Cc1nc2c(F)c(O)c(-c3ccc4nc(N5CC[C@@H](NC6(CF)CC6)C5)ccc4n3)cc2o1 (single isomer, unassigned) [Compound 372] | < 100 nM | < 100 nM | < 100 nM | < 100 nM | < 100 nM | < 100 nM |  |  | < 100 nM | < 100 nM |  |  | 
Cc1c(O)c(-c2ncc3cc(N4C[C@H](C)NC5(CC5)C4)ccc3n2)cc2cn(C)nc12 (single isomer, unassigned) [Compound 810] | 1000 to 10000 nM | < 100 nM |  | 1000 to 10000 nM |  | 100 to 1000 nM | 1000 to 10000 nM | 100 to 1000 nM |  |  | 1000 to 10000 nM | 100 to 1000 nM | B (B represents 100-1000 nM)
Cc1c(O)c(-c2ncc3cc(N4C[C@@H](C)NC5(CC5)C4)ccc3n2)cc2cn(C)nc12 (single isomer, unassigned) [Compound 811] | > 10000 nM | < 100 nM |  | 1000 to 10000 nM |  | < 100 nM | 1000 to 10000 nM | < 100 nM |  |  | 1000 to 10000 nM | < 100 nM | B (B represents 100-1000 nM)
C[C@H]1CN(c2ccc3nc(-c4cc5cn(C)nc5cc4O)ncc3c2)CC2(CC2)N1 (single isomer, unassigned) [Compound 812] | 1000 to 10000 nM | < 100 nM |  | 1000 to 10000 nM |  | 100 to 1000 nM | 1000 to 10000 nM | 100 to 1000 nM |  |  | 1000 to 10000 nM | 100 to 1000 nM | B (B represents 100-1000 nM)
CN(c1ccc2nc(-c3cc4cn(C)nc4cc3O)ccc2n1)C1CC(C)(C)N(C)C(C)(C)C1 [Compound 130] | > 10000 nM | 100 to 1000 nM | > 10000 nM | > 10000 nM | > 10000 nM | > 10000 nM |  |  | > 10000 nM | > 10000 nM |  |  | 
COc1cc2nc(C3CCNCC3)ccc2nc1-c1cc2c(C)nc(C)cn2n1 [Compound 343, 2-{4,6-dimethylpyrazolo[1,5-a]pyrazin-2-yl}-3-methoxy-6-(piperidin-4-yl)-1,5-naphthyridine] | > 10000 nM | < 100 nM | 1000 to 10000 nM | 1000 to 10000 nM | 1000 to 10000 nM | 1000 to 10000 nM |  |  | 1000 to 10000 nM | 1000 to 10000 nM |  |  | 
Cc1nc(-c2cc3cn(C)nc3c(C)c2O)nc2ccc(N3CCNC4(CC4)C3)cc12 [Compound 793, 5-(6-{4,7-diazaspiro[2.5]octan-7-yl}-4-methylquinazolin-2-yl)-2,7-dimethylindazol-6-ol] | > 10000 nM |  |  | 1000 to 10000 nM |  | 100 to 1000 nM | 1000 to 10000 nM | 100 to 1000 nM |  |  | 1000 to 10000 nM | 100 to 1000 nM | B (B represents 100-1000 nM)
Cn1cc2cc(-c3ncc4cc(N5CCC(N6CCC6)CC5)ccc4n3)c(O)cc2n1 [Compound 801, 5-{6-[4-(azetidin-1-yl)piperidin-1-yl]quinazolin-2-yl}-2-methylindazol-6-ol] | 1000 to 10000 nM |  |  | 1000 to 10000 nM |  | 100 to 1000 nM | 1000 to 10000 nM | 100 to 1000 nM |  |  | 1000 to 10000 nM | 1000 to 10000 nM | B (B represents 100-1000 nM)
C[C@H]1CN(c2ccc3nc(-c4cc(F)c5nn(C)cc5c4)ncc3c2)C[C@H](C)N1 [Compound 802, 6-[(3S,5S)-3,5-dimethylpiperazin-1-yl]-2-(7-fluoro-2-methylindazol-5-yl)quinazoline] | 100 to 1000 nM |  |  | 100 to 1000 nM |  | 100 to 1000 nM | 100 to 1000 nM | 100 to 1000 nM |  |  | 100 to 1000 nM | 100 to 1000 nM | B (B represents 100-1000 nM)
